Tests used:
[1] = test system: MV-4-11 cells; assay: Cell viability assay (CellTiter-Glo), MV-4-11; format: cell-based; details: Homo sapiens, MV4-11, 24 hours incubation, 1% FBS, read-out: Average pIC50 by molecule MV-4-11 (converted)
Summary of the method: (§1)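 Luminescent ATP readout (CellTiter-Glo) at 24 hours measured viability, expressed relative to DMSO-treated wells. Compound was added directly to the medium as a 9–12-point threefold series starting at 30 uM, at 0.5% final DMSO. The medium contained FBS reduced to 1%.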

[2] = test system: ARH-77 cells; assay: Cell viability assay (CellTiter-Glo), ARH-77; format: cell-based; details: Homo sapiens, ARH-77, 24 hours incubation, 1% FBS, read-out: Average pIC50 by molecule ARH-77 (converted)
Summary of the method: as §1

[3] = biological target: [MCL-1]-[compound of formula (I)]-[CRBN/DDB1] complex (Homo sapiens, UniProt Q07820+Q96SW2); assay: HTRF ternary complex assay; format: binding; details: ternary complex formation; read-out: HTRF ternary complex Average pEC50 by molecule (converted)
Sequence of [MCL-1]-[compound of formula (I)]-[CRBN/DDB1] complex (Q07820 whole entry): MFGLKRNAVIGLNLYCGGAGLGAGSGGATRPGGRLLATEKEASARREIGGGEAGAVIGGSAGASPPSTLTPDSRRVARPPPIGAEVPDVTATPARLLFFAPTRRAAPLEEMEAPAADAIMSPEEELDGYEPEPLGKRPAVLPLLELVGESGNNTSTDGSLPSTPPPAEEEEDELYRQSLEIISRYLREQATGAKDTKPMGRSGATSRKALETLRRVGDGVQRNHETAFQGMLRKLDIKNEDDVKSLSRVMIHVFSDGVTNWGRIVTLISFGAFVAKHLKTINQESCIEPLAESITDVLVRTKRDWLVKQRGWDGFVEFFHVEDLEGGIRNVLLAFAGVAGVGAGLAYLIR
Sequence of [MCL-1]-[compound of formula (I)]-[CRBN/DDB1] complex (Q96SW2 whole entry): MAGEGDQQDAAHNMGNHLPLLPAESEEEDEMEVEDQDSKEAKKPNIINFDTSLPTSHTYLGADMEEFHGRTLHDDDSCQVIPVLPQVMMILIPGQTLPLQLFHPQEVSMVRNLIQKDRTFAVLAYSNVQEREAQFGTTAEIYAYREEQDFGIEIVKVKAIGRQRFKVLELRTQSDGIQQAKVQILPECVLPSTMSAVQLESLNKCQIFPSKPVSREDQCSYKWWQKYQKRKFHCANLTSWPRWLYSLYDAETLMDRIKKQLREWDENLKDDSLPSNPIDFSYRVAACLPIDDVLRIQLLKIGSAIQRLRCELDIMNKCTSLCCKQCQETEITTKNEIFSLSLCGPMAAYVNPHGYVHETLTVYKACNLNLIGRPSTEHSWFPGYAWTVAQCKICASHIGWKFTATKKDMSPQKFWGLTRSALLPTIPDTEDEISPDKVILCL
Sequence of [MCL-1]-[compound of formula (I)]-[CRBN/DDB1] complex (Q16531 whole entry partner): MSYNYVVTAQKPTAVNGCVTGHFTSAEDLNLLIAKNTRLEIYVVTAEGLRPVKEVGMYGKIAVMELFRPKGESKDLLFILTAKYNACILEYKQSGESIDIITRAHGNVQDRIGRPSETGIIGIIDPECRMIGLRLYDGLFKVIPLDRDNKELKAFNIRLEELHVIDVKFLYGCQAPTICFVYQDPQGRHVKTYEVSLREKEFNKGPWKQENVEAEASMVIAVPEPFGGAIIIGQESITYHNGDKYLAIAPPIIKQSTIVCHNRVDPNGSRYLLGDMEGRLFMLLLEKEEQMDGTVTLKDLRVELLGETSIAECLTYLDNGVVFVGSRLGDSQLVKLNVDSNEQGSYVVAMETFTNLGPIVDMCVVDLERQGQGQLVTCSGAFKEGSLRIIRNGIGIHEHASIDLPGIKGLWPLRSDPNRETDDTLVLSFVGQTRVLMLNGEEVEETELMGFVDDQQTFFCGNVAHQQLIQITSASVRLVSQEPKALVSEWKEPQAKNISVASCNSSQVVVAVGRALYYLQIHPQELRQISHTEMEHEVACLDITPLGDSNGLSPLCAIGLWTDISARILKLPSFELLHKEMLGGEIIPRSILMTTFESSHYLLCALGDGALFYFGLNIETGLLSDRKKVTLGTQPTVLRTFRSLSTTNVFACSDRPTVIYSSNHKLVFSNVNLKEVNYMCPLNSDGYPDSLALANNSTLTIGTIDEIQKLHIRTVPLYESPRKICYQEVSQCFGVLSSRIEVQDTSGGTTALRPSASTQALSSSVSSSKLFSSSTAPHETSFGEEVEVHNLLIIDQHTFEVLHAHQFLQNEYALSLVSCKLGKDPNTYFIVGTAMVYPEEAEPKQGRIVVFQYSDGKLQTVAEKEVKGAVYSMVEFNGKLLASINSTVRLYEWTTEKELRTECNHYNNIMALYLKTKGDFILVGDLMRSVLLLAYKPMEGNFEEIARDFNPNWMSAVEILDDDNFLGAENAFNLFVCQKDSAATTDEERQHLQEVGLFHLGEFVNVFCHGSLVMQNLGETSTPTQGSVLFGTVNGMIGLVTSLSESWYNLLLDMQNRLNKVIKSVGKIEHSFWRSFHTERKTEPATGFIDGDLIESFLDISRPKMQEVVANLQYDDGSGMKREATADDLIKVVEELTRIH
Description: The effect of the bifunctional compounds of the invention on the formation of a ternary complex composed of [MCL-1]-[compound of formula (I)]-[CRBN/DDB1] was investigated.
Mix of protein solution were prepared: • 48 nM hMcl-1 and 105.6 nM CRBN was prepared in PPI Europium detection buffer with 2 mM DTT. • Acceptor and donor stock solutions were diluted 100 times in PPI Europium detection buffer. Equal volumes of both reagents were mixed. Finally giving 3 nM of Streptavidin-Eu cryptate […] and 6.67 nM of Anti-6× his-d2 […].
5 μl of protein mix was dispensed to all wells. The tested compounds in dose-response were dispensed onto a white 384-well low volume plate (Greiner, 784075). DMSO was backfilled to all wells, resulting in a final DMSO content of 0.5%. Wells containing only DMSO served as background. Next, 5 μl of solution with donor and acceptor was added to the wells.
The plate was sealed with transparent film and shaken using a VibroTurbulator for 60 see at level 3. The plate was then spun down shortly (10 s, 1000 rcf) and incubated at 25° C. for 180 min.
The read-out was performed with plate reader (Pherastar, BMG Labtech) in time resolved fluorescence mode. Filterset: TR 337 665 620.
The results were analyzed as follows: • 1) an average of fluorescence for background signal was calculated and used as a negative control; • 2) raw fluorescence values for tested compounds were normalized against negative controls; • 3) bell shape curve was fitted to a gaussian distribution using a non-linear least squares Gauss-Newton algorithm; • 4) EC50 and pEC50 values were determined.

Compound	IC50 [1] [nM]	IC50 [2] [nM]	EC50 [3] [nM]
Cc1nn(C)c(C)c1-c1c(Cl)ccc2c(CCCOc3cccc4cc(F)ccc34)c(C(=O)O)n(CCN3CC(N4CCN(c5cc6c(cc5F)C(=O)N(C5CCC(=O)NC5=O)C6=O)CC4)C3)c12 (centres unmarked) [Compound 337, 6-Chloro-1-(2-(3-(4-(2-(2,6-dioxopiperidin-3-yl)-6-fluoro-1,3-dioxoisoindolin-5-yl)piperazin-1-yl)azetidin-1-yl)ethyl)-3-(3-((6-fluoronaphthalen-1-yl)oxy)propyl)-7-(1,3,5-trimethyl-1H-pyrazol-4-yl)-1H-indole-2-carboxylic acid]	≤ 316	> 10000	< 10
Cc1nn(C)c(C)c1-c1c(Cl)ccc2c(CCCOc3cccc4cc(F)ccc34)c(C(=O)O)n(CCN3CCC(N4CCN(c5cc6c(cc5F)C(=O)N(C5CCC(=O)NC5=O)C6=O)CC4)CC3)c12 (centres unmarked) [Compound 336, 6-Chloro-1-[2-(4-{4-[2-(2,6-dioxopiperidin-3-yl)-6-fluoro-1,3-dioxo-2,3-dihydro-1H-isoindol-5-yl]piperazin-1-yl}piperidin-1-yl)ethyl]-3-{3-[(6-fluoronaphthalen-1-yl)oxy]propyl}-7-(1,3,5-trimethyl-1H-pyrazol-4-yl)-1H-indole-2-carboxylic acid]	≤ 100	> 10000	< 10
Cc1nn(C)c(C)c1-c1c(Cl)ccc2c(CCCOc3cccc4cc(F)ccc34)c(C(=O)O)n(CCC3CN(C(=O)COc4cccc5c4CN(C4CCC(=O)NC4=O)C5=O)C3)c12 (centres unmarked) [Compound 299, 6-Chloro-1-(2-(1-(2-((2-(2,6-dioxopiperidin-3-yl)-1-oxoisoindolin-4-yl)oxy)acetyl)azetidin-3-yl)ethyl)-3-(3-((6-fluoronaphthalen-1-yl)oxy)propyl)-7-(1,3,5-trimethyl-1H-pyrazol-4-yl)-1H-indole-2-carboxylic acid]	≤ 100	> 10000	< 100
O=C1CCC(N2Cc3c(OCC(=O)N4CCN(CCn5c(C(=O)O)c(CCCOc6cccc7cc(F)ccc67)c6ccc(Cl)c(-c7cnn8cccnc78)c65)CC4)cccc3C2=O)C(=O)N1 (centres unmarked) [Compound 348, 6-Chloro-1-(2-(4-(2-((2-(2,6-dioxopiperidin-3-yl)-1-oxoisoindolin-4-yl)oxy)acetyl)piperazin-1-yl)ethyl)-3-(3-((6-fluoronaphthalen-1-yl)oxy)propyl)-7-(pyrazolo[1,5-a]pyrimidin-3-yl)-1H-indole-2-carboxylic acid]	≤ 316	> 10000	< 100
Cc1nn(C)c(C)c1-c1c(Cl)ccc2c(CCCOc3cccc4cc(F)ccc34)c(C(=O)O)n(CCC3CCC(NC(=O)COc4cccc5c4CN(C4CCC(=O)NC4=O)C5=O)CN3C)c12 (centres unmarked) [Compound 306, 6-Chloro-1-{2-[5-(2-{[2-(2,6-dioxopiperidin-3-yl)-1-oxo-2,3-dihydro-1H-isoindol-4-yl]oxy}acetamido)-1-methylpiperidin-2-yl]ethyl}-3-{3-[(6-fluoronaphthalen-1-yl)oxy]propyl}-7-(1,3,5-trimethyl-1H-pyrazol-4-yl)-1H-indole-2-carboxylic acid]	≤ 100	> 10000	< 10
Cc1nn(C)c(C)c1-c1c(Cl)ccc2c(CCCOc3cccc4cc(F)ccc34)c(C(=O)O)n(CCOCCCn3c(C)nc4c(C(=O)NC5CCC(=O)NC5=O)cccc43)c12 (centres unmarked) [Compound 282, 6-Chloro-1-[2-(3-{4-[(2,6-dioxopiperidin-3-yl)carbamoyl]-2-methyl-1H-1,3-benzodiazol-1-yl}propoxy)ethyl]-3-{3-[(6-fluoronaphthalen-1-yl)oxy]propyl}-7-(1,3,5-trimethyl-1H-pyrazol-4-yl)-1H-indole-2-carboxylic acid]	≤ 31.6	> 3160	< 100
Cc1nn(C)c(C)c1-c1c(Cl)ccc2c(CCCOc3cccc4cc(F)ccc34)c(C(=O)O)n(CCN3CCN(C4CN(c5cc6c(cc5F)C(=O)N(C5CCC(=O)NC5=O)C6=O)C4)CC3)c12 (centres unmarked) [Compound 335, 6-Chloro-1-(2-(4-(1-(2-(2,6-dioxopiperidin-3-yl)-6-fluoro-1,3-dioxoisoindolin-5-yl)azetidin-3-yl)piperazin-1-yl)ethyl)-3-(3-((6-fluoronaphthalen-1-yl)oxy)propyl)-7-(1,3,5-trimethyl-1H-pyrazol-4-yl)-1H-indole-2-carboxylic acid]	≤ 31.6	> 3160	< 10
Cc1nn(C)c(C)c1-c1c(Cl)ccc2c(CCCOc3cccc4cc(F)ccc34)c(C(=O)O)n(CCN3CCC(C(=O)N4CCN(c5cc6c(cc5F)C(=O)N(C5CCC(=O)NC5=O)C6=O)CC4)CC3)c12 (centres unmarked) [Compound 333, 6-Chloro-1-[2-(4-{4-[2-(2,6-dioxopiperidin-3-yl)-6-fluoro-1,3-dioxo-2,3-dihydro-1H-isoindol-5-yl]piperazine-1-carbonyl}piperidin-1-yl)ethyl]-3-{3-[(6-fluoronaphthalen-1-yl)oxy]propyl}-7-(1,3,5-trimethyl-1H-pyrazol-4-yl)-1H-indole-2-carboxylic acid]	≤ 1000	–	< 10
Cc1nn(C)c(C)c1-c1c(Cl)ccc2c(CCCOc3cccc4cc(F)ccc34)c(C(=O)O)n(CCN3CCN(CC4CN(c5cc6c(cc5F)C(=O)N(C5CCC(=O)NC5=O)C6=O)C4)CC3)c12 (centres unmarked) [Compound 334, 6-Chloro-1-(2-(4-((1-(2-(2,6-dioxopiperidin-3-yl)-6-fluoro-1,3-dioxoisoindolin-5-yl)azetidin-3-yl)methyl)piperazin-1-yl)ethyl)-3-(3-((6-fluoronaphthalen-1-yl)oxy)propyl)-7-(1,3,5-trimethyl-1H-pyrazol-4-yl)-1H-indole-2-carboxylic acid]	≤ 100	> 3160	< 10
Cc1nc2cc(NCC(=O)N3CCN(CCn4c(C(=O)O)c(CCCOc5cccc6cc(F)ccc56)c5ccc(Cl)c(-c6c(C)nn(C)c6C)c54)CC3)ccc2cc1C1CCC(=O)NC1=O (centres unmarked) [Compound 285, 6-Chloro-1-(2-(4-((3-(2,6-dioxopiperidin-3-yl)-2-methylquinolin-7-yl)glycyl)piperazin-1-yl)ethyl)-3-(3-((6-fluoronaphthalen-1-yl)oxy)propyl)-7-(1,3,5-trimethyl-1H-pyrazol-4-yl)-1H-indole-2-carboxylic acid]	≤ 100	> 10000	< 10
Cc1cc(OCCCc2c(C(=O)NS(=O)(=O)CCNC(=O)CCOCCOCCNc3cccc4c3C(=O)N(C3CCC(=O)NC3=O)C4=O)n(C)c3c(-c4c(C)nn(C)c4C)c(Cl)ccc23)cc(C)c1Cl (centres unmarked) [Compound 252, 6-chloro-3-(3-(4-chloro-3,5-dimethylphenoxy)propyl)-N-((2-(3-(2-(2-((2-(2,6-dioxopiperidin-3-yl)-1,3-dioxoisoindolin-4-yl)amino)ethoxy)ethoxy)propanamido)ethyl)sulfonyl)-1-methyl-7-(1,3,5-trimethyl-1H-pyrazol-4-yl)-1H-indole-2-carboxamide]	–	–	< 100
Cc1nn(C)c(C)c1-c1c(Cl)ccc2c(CCCOc3cccc4cc(F)ccc34)c(C(=O)O)n(CCN3CC4(CCN(C(=O)COc5cccc6c5CN(C5CCC(=O)NC5=O)C6=O)C4)C3)c12 (centres unmarked) [Compound 305, 6-Chloro-1-(2-(6-(2-((2-(2,6-dioxopiperidin-3-yl)-1-oxoisoindolin-4-yl)oxy)acetyl)-2,6-diazaspiro[3.4]octan-2-yl)ethyl)-3-(3-((6-fluoronaphthalen-1-yl)oxy)propyl)-7-(1,3,5-trimethyl-1H-pyrazol-4-yl)-1H-indole-2-carboxylic acid]	–	–	< 100
Cc1nc2cc(C(=O)N3CCN(CCn4c(C(=O)O)c(CCCOc5cccc6cc(F)ccc56)c5ccc(Cl)c(-c6c(C)nn(C)c6C)c54)CC3)ccc2cc1C1CCC(=O)NC1=O (centres unmarked) [Compound 291, 6-Chloro-1-(2-{4-[3-(2,6-dioxopiperidin-3-yl)-2-methylquinoline-7-carbonyl]piperazin-1-yl}ethyl)-3-{3-[(6-fluoronaphthalen-1-yl)oxy]propyl}-7-(1,3,5-trimethyl-1H-pyrazol-4-yl)-1H-indole-2-carboxylic acid]	–	–	< 100
